Laboratory results from patent publication US8822503B2, “2-pyridone compounds” (Taisho Pharmaceutical Co., Ltd, priority 2009, dated 2014).

Biological target: T1, human liver GK (Homo sapiens, UniProt P35557)
T1 construct: GST (glutathione S-transferase) (N); made in house; host or cells: E. coli
T1 sequence (P35557 1-466 isoform P35557-2): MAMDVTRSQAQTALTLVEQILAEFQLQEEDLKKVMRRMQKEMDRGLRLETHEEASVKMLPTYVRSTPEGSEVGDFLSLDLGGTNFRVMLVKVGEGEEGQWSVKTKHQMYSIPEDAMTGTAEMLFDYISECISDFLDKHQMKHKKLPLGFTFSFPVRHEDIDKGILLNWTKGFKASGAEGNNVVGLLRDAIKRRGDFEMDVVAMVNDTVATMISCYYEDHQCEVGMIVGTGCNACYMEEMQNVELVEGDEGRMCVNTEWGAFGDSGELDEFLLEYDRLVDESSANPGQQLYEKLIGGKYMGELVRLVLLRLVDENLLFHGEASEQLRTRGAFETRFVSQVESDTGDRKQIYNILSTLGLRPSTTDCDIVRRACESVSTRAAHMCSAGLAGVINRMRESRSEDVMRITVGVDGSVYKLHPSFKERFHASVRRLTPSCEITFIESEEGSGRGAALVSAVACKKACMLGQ
Test: GK activation test
Assay type: biochemical
Settings: test compound concentration needed to activate 50% of maximum activation ability; 4 mM 14C-labeled glucose, 2 mM ATP, room temperature, 20 minutes
Method in brief: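 GST-tagged human liver GK from E. coli (0.24 μg/well) with 4 mM 14C-glucose, 2 mM ATP in Hepes-KOH pH 7.1, KCl, MgCl2, DTT, 1% DMSO, 20 min room temperature. Labeled glucose 6-phosphate captured on anion resin, eluted and counted. EC50 = concentration giving half of maximal activation.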

SMILES | EC50 [nM]
CCc1ccc(C(C[C@H]2CCC(=O)N2)c2ccc(Cl)c(=O)[nH]2)cc1 (single isomer, unassigned) [Example 4-309] | 3000 to 10000
O=C1CC[C@H](/C=C(\c2ccc(F)c(F)c2)c2ccc(C3CC3)c(=O)[nH]2)N1 [Example 4-112, 3-Cyclopropyl-6-{(E)-1-(3,4-difluorophenyl)-2-[(2R)-5-oxopyrrolidin-2-yl]ethenyl}pyridin-2(1H)-one] | 500 to 3000
O=C1CC[C@H](CC(c2ccc(C3CC3)cc2)c2ccc(Cl)c(=O)[nH]2)N1 (single isomer, unassigned) [Example 4-316] | 3000 to 10000
C[C@H](/C=C(\c1ccc(S(=O)(=O)C2CC2)cc1)c1ccc(C(F)(F)F)c(=O)[nH]1)CO [Example 1-102, 6-{(1E,3R)-1-[4-(Cyclopropylsulfonyl)phenyl]-4-hydroxy-3-methylbut-1-en-1-yl}-3-(trifluoromethyl)pyridin-2(1H)-one] | 500 to 3000
O=C1CC[C@H](/C=C(\c2cc(C(F)(F)F)cc(C(F)(F)F)c2)c2ccc(C3CC3)c(=O)[nH]2)N1 [Example 4-119, 6-{(E)-1-[3,5-Bis(trifluoromethyl)phenyl]-2-[(2R)-5-oxopyrrolidin-2-yl]ethenyl}-3-cyclopropylpyridin-2(1H)-one] | 500 to 3000
O=C1CC[C@H](CC(c2ccc(S(=O)(=O)C3CC3)c(Cl)c2)c2ccc(Cl)c(=O)[nH]2)N1 (single isomer, unassigned) [Example 4-305] | 3000 to 10000
O=C1CC[C@H](/C=C(\c2ccc(Cl)c(OC(F)(F)F)c2)c2ccc(C3CC3)c(=O)[nH]2)N1 [Example 4-129, 6-{(E)-1-[4-Chloro-3-(trifluoromethoxy)phenyl]-2-[(2R)-5-oxopyrrolidin-2-yl]ethenyl}-3-cyclopropylpyridin-2(1H)-one] | 500 to 3000
CC(C)(C)c1ccc(/C(=C\[C@H]2CCC(=O)N2)c2ccc(CCC(N)=O)c(=O)[nH]2)cc1 [Example 4-201, 3-(6-{(E)-1-(4-tert-Butylphenyl)-2-[(2R)-5-oxopyrrolidin-2-yl]ethenyl}-2-oxo-1,2-dihydropyridin-3-yl)propanamide] | 500 to 3000
O=C1CC[C@H](CC(c2ccc(Cl)c(C(F)(F)F)c2)c2ccc(C3CC3)c(=O)[nH]2)N1 (single isomer, unassigned) [Example 4-221] | 500 to 3000
CCS(=O)(=O)c1ccc(/C(=C\[C@H]2CCC(=O)N2)c2ccc(Cl)c(=O)[nH]2)cc1Cl [Example 4-58, 3-Chloro-6-{(E)-1-[3-chloro-4-(ethylsulfonyl)phenyl]-2-[(2R)-5-oxopyrrolidin-2-yl]ethenyl}pyridin-2(1H)-one] | 500 to 3000
Cc1ccc(/C(=C\[C@H]2CCC(=O)N2)c2ccc(Cl)c(=O)[nH]2)cc1Cl [Example 4-24, 3-Chloro-6-{(E)-1-(3-chloro-4-methylphenyl)-2-[(2R)-5-oxopyrrolidin-2-yl]ethenyl}pyridin-2(1H)-one] | 500 to 3000
CC(=O)N1CCC(/C=C(\c2ccc(S(C)(=O)=O)cc2)c2ccc(C3CC3)c(=O)[nH]2)CC1 [Example 4-43, 6-{(E)-2-(1-Acetylpiperidin-4-yl)-1-[4-(methylsulfonyl)phenyl]ethenyl}-3-cyclopropylpyridin-2(1H)-one] | 3000 to 10000
CC(C)(C)c1ccc(C(C[C@H]2CCC(=O)N2)c2ccc(Cl)c(=O)[nH]2)cc1 (single isomer, unassigned) [Example 4-70] | 500 to 3000
O=C1CC[C@H](/C=C(/c2ccc(Cl)c(=O)[nH]2)c2ccc(C(F)(F)F)cc2F)N1 [Example 4-262, 3-Chloro-6-{(E)-1-[2-fluoro-4-(trifluoromethyl)phenyl]-2-[(2R)-5-oxopyrrolidin-2-yl]ethenyl}pyridin-2(1H)-one] | 500 to 3000
CCN1CC(S(=O)(=O)c2ccc(/C(=C\C3CCCC3)c3ccc(C)c(=O)[nH]3)cc2)C1 [Example 1-32, 6-[(E)-2-Cyclopentyl-1-{4-[(1-ethylazetidin-3-yl)sulfonyl]phenyl}ethenyl]-3-methylpyridin-2(1H)-one] | 500 to 3000
CC(C)c1ccc(/C(=C\C2CCOCC2)c2ccc(Cl)c(=O)[nH]2)cc1 [Example 1-109, 3-Chloro-6-[(E)-1-[4-(propan-2-yl)phenyl]-2-(tetrahydro-2H-pyran-4-yl)ethenyl]pyridin-2(1H)-one] | 500 to 3000
CSc1ccc(/C(=C\C2CCN(C(C)=O)CC2)c2ccc(C3CC3)c(=O)[nH]2)cc1 [Example 4-42, 6-{(E)-2-(1-Acetylpiperidin-4-yl)-1-[4-(methylsulfanyl)phenyl]ethenyl}-3-cyclopropylpyridin-2(1H)-one] | 3000 to 10000
CC(C)Oc1ccc(C(C[C@H]2CCC(=O)N2)c2ccc(Cl)c(=O)[nH]2)cc1Cl (single isomer, unassigned) [Example 4-296] | 500 to 3000
O=C1CC[C@H](/C=C(\c2cccc(C(F)(F)F)c2)c2ccc(Cl)c(=O)[nH]2)N1 [Example 4-261, 3-Chloro-6-{(E)-2-[(2R)-5-oxopyrrolidin-2-yl]-1-[3-(trifluoromethyl)phenyl]ethenyl}pyridin-2(1H)-one] | 3000 to 10000
CSc1ccc(C(CC2CCCC2)c2ccc(C)c(=O)[nH]2)cc1 (stereo not shown) [Example 2-1, 6-{2-Cyclopentyl-1-[4-(methylsulfanyl)phenyl]ethyl}-3-methylpyridin-2(1H)-one] | 500 to 3000
CC(C)(C)c1ccc(/C(=C\Cn2ccccc2=O)c2ccc(Cl)c(=O)[nH]2)cc1 [Example 6-11, 6-[(1E)-1-(4-tert-Butylphenyl)-3-(2-oxopyridin-1(2H)-yl)prop-1-en-1-yl]-3-chloropyridin-2(1H)-one] | 500 to 3000
CSc1ccc(/C(=C\C2CCOCC2)c2ccc(C)c(=O)[nH]2)cc1Cl [Example 1-55, 6-[(E)-1-[3-Chloro-4-(methylsulfanyl)phenyl]-2-(tetrahydro-2H-pyran-4-yl)ethenyl]-3-methylpyridin-2(1H)-one] | 500 to 3000

Other lines, results leading:

EC50 [nM] | SMILES
500 to 3000 | CC(=O)c1ccc(/C(=C/[C@H]2CCC(=O)N2)c2ccc(C(C)(C)C)cc2)[nH]c1=O [Example 4-175, 3-Acetyl-6-{(E)-1-(4-tert-butylphenyl)-2-[(2R)-5-oxopyrrolidin-2-yl]ethenyl}pyridin-2(1H)-one]
500 to 3000 | CCN(CC)CCCOc1ccc(/C(=C\[C@H]2CCC(=O)C2)c2ccc(C3CC3)c(=O)[nH]2)cc1 [Example 1-66, 3-Cyclopropyl-6-{(E)-1-{4-[3-(diethylamino)propoxy]phenyl}-2-[(1S)-3-oxocyclopentyl]ethenyl}pyridin-2(1H)-one]
500 to 3000 | O=C1CC[C@H](/C=C(\c2ccc(Cl)nc2)c2ccc(C3CC3)c(=O)[nH]2)N1 [Example 4-120, 6-{(E)-1-(6-Chloropyridin-3-yl)-2-[(2R)-5-oxopyrrolidin-2-yl]ethenyl}-3-cyclopropylpyridin-2(1H)-one]
10 to 500 | Cc1ccc(/C(=C/[C@H]2CCC(=O)C2)c2ccc(SCCCO)c(Cl)c2)[nH]c1=O [Example 1-73, 6-{(E)-1-{3-Chloro-4-[(3-hydroxypropyl)sulfanyl]phenyl}-2-[(1S)-3-oxocyclopentyl]ethenyl}-3-methylpyridin-2(1H)-one]
10 to 500 | CCOc1ccc(/C(=C\[C@H]2CCC(=O)N2)c2ccc(C3CC3)c(=O)[nH]2)cc1 [Example 4-6, 3-Cyclopropyl-6-{(E)-1-(4-ethoxyphenyl)-2-[(2R)-5-oxopyrrolidin-2-yl]ethenyl}pyridin-2(1H)-one]
10 to 500 | O=C1CC[C@H](/C=C(\c2ccc3c(c2)CCO3)c2ccc(C3CC3)c(=O)[nH]2)N1 [Example 4-123, 3-Cyclopropyl-6-{(E)-1-(2,3-dihydro-1-benzofuran-5-yl)-2-[(2R)-5-oxopyrrolidin-2-yl]ethenyl}pyridin-2(1H)-one]
10 to 500 | CSc1ccc(/C(=C\C2CCOC2)c2ccc(C3CC3)c(=O)[nH]2)cc1 (stereo not shown) [Example 1-47, 3-Cyclopropyl-6-[(E)-1-[4-(methylsulfanyl)phenyl]-2-(tetrahydrofuran-3-yl)ethenyl]pyridin-2(1H)-one]
10 to 500 | Cc1cc(C(C[C@H]2CCC(=O)N2)c2ccc(C3CC3)c(=O)[nH]2)ccc1S(=O)(=O)C1CC1 (single isomer, unassigned) [Example 4-298]
10 to 500 | O=C1CC[C@H](/C=C(\c2ccc(S(=O)(=O)N3CCOCC3)cc2)c2ccc(C3CC3)c(=O)[nH]2)N1 [Example 4-138, 3-Cyclopropyl-6-{(E)-1-[4-(morpholin-4-ylsulfonyl)phenyl]-2-[(2R)-5-oxopyrrolidin-2-yl]ethenyl}pyridin-2(1H)-one]
10 to 500 | CCOc1ccc(/C(=C\[C@H]2CCC(=O)N2)c2ccc(C3CC3)c(=O)[nH]2)c(F)c1F [Example 4-282, 3-Cyclopropyl-6-{(E)-1-(4-ethoxy-2,3-difluorophenyl)-2-[(2R)-5-oxopyrrolidin-2-yl]ethenyl}pyridin-2(1H)-one]
10 to 500 | CC(C)(C)c1ccc(/C(=C\CN2CCCC2=O)c2ccc(Cl)c(=O)[nH]2)cc1 [Example 6-3, 6-[(1E)-1-(4-tert-Butylphenyl)-3-(2-oxopyrrolidin-1-yl)prop-1-en-1-yl]-3-chloropyridin-2(1H)-one]
10 to 500 | CCc1ccc(/C(=C/C2CCCC2)c2ccc(S(=O)(=O)CCCO)cc2)[nH]c1=O [Example 1-13, 6-[(E)-2-Cyclopentyl-1-{4-[(3-hydroxypropyl)sulfonyl]phenyl}ethenyl]-3-ethylpyridin-2(1H)-one]
